Tests used:
[1] = biological target: T1, SCoV2 PLpro (Severe acute respiratory syndrome coronavirus 2, UniProt P0DTD1); format: cell-based, SARS-CoV-2; settings: 10 μM, western blot
[2] = biological target: T1, SCoV2 PLpro; test: biochemical; format: biochemical, SARS-CoV-2

C[C@H](c1cccc2ccccc12)N1CCC(C(=O)NCc2cc(F)cc(NC(=O)N3CCN(C)CC3)c2)CC1 [Inhibitor 19, (R)-N-(3-fluoro-5-((1-(1-(naphthalen-1-yl)ethyl)piperidine-4-carboxamido)methyl)phenyl)-4-methylpiperazine-1-carboxamide]
inhibition of SCoV2 PLpro (nsp1-nsp2 cleavage) in 293T cells [1]: significantly inhibited

CC(C)c1cc(C(C)C)c(CC(=O)NS(=O)(=O)Oc2c(C(C)C)cccc2C(C)C)c(C(C)C)c1 [avasimibe]
inhibition at 10 µM ([2]; read-out: inhibition of SCoV2 PLpro): > 50%

O=C(O)C(=O)c1cn(Cc2ccccc2)c2ccc(-c3ccc(OC(F)(F)F)cc3)cc12 [tiplaxtinin]
inhibition of SCoV2 PLpro ([2]; 10 μM compound, probe 7): over 50%

vitamin B12
inhibition of SCoV2 PLpro ([2]; 10 µM): over 50%

— article PMC8075810 (Cell Chemical Biology, 2021)
